From patent publication US4605642A, “CRF antagonists” (The Salk Institute for Biological Studies, priority 1984, dated 1986)
Each block holds one compound with its values, some of them ahead of it. Square brackets hold non-standard residues; d marks the D form. Peptide text beside a SMILES is read from it. Nle = CCCC[C@H](N)C(=O)O

Assays:
[1] = system: secretion of ACTH by cultured rat pituitary cells; assay: Blocking of oCRF-stimulated ACTH secretion by cultured rat pituitary cells; format: cell-based; settings: for inhibition of the secretion of ACTH (in words): general procedure set forth in Example III
Description: (§1) The effectiveness of synthetic CRF antagonists to block the secretion of ACTH and β-endorphin by cultured rat pituitary cells is measured using the procedure as generally set forth in Vale et al., Endocrinology, 91, 562 (1972). In vivo testing is carried out using the general procedure set forth in C. Rivier et al., Science, 218, 377 (1982).

[2] = system: GRF-stimulated secretion of GH; assay: Specificity: GRF-stimulated secretion of GH; format: cell-based; settings: specificity of inhibition
[3] = system: GnRH-stimulated secretion of LH and FSH; assay: Specificity: GnRH-stimulated secretion of LH and FSH; format: cell-based; settings: specificity of inhibition
[4] = system: TRF-stimulated secretion of TSH and prolactin; assay: Specificity: TRF-stimulated secretion of TSH and prolactin; format: cell-based; settings: specificity of inhibition
spontaneous ACTH release = assay: Spontaneous ACTH release by adrenalectomized rats; format: in vivo, rat; settings: iv 3 mg/kg BW (2.7 nmole)
Description: as §1
The in vivo effect of CRF antagonists is tested on the spontaneous ACTH release by adrenalectomized rats.

ACTH secretion = ACTH secretion in vivo after intravenous hCRF in rat preparations
Description: (§2) Plasma levels of ACTH and β-END-LI are elevated for at least 5-20 minutes following the intraveneous administration of hCRF to nembutal-anesthesized male rats and to quiescent male or female rats with indwelling intravenous cannulae.

β-END-LI secretion = β-END-LI secretion in vivo after intravenous hCRF in rat preparations
Description: as §2

[5] = system: secretion of β-endorphin by cultured rat pituitary cells; assay: Blocking of β-endorphin (β-END-LI) secretion by cultured rat pituitary cells; format: cell-based; settings: general procedure set forth in Example III
Description: as §1

[6] = Blood pressure lowering by antagonist; format: in vivo; settings: general procedure set forth in Example III
[7] = intravenous, nembutal-anesthetized male rats and quiescent cannulated male or female rats

IC50 ([1]; cultured rat pituitary cells, 1 nM oCRF, five independent experiments, read-out: concentration that blocks the secretion of ACTH due to 1 nM oCRF by 50%): 197 ± 72 nM
Compound: H-DLTFHLLREMLEMAKAEQEAEQAALNRLLLEEA-NH2 [AHC (9-41)]
type of inhibition of oCRF-stimulated ACTH secretion ([1]; several concentrations of oCRF and of antagonist, constant oCRF 1 nM): competitive inhibition | potency as CRF antagonist (in words) ([1]; test not stated at the place): particularly potent | effect on the GRF-stimulated secretion of GH [2]: no effect | effect on the GnRH-stimulated secretion of LH and FSH [3]: no effect | effect on the TRF-stimulated secretion of TSH and prolactin [4]: no effect | plasma ACTH levels (spontaneous ACTH release) (spontaneous ACTH release): marked decrease

Compound: CC[C@H](C)[C@H](NC(=O)[C@@H](NC(=O)[C@H](CCC(=O)O)NC(=O)[C@H](CCSC)NC(=O)[C@H](CC(C)C)NC(=O)[C@H](CCCCN)NC(=O)[C@H](CCCNC(=N)N)NC(=O)[C@H](CC(N)=O)NC(=O)[C@H](CO)NC(=O)[C@H](Cc1c[nH]cn1)NC(=O)[C@H](C)NC(=O)[C@H](CCC(N)=O)NC(=O)[C@H](CCC(N)=O)NC(=O)[C@H](C)NC(=O)[C@H](CC(C)C)NC(=O)[C@H](CCC(N)=O)NC(=O)[C@H](CCC(=O)O)NC(=O)[C@H](C)NC(=O)[C@H](CCCNC(=N)N)NC(=O)[C@H](C)NC(=O)[C@H](CCSC)NC(=O)[C@H](CCC(=O)O)NC(=O)[C@H](CC(C)C)NC(=O)[C@@H](NC(=O)[C@H](CCC(=O)O)NC(=O)[C@H](CCCNC(=N)N)NC(=O)[C@H](CC(C)C)NC(=O)[C@H](CC(C)C)NC(=O)[C@H](Cc1c[nH]cn1)NC(=O)[C@H](Cc1ccccc1)NC(=O)[C@@H](NC(=O)[C@H](CC(C)C)NC(=O)[C@H](CC(=O)O)NC(=O)[C@H](CC(C)C)NC(=O)[C@H](CO)NC(=O)[C@@H](NC(=O)[C@@H]1CCCN1C(=O)[C@@H]1CCCN1C(=O)[C@H](CCC(=O)O)NC(=O)[C@H](CCC(=O)O)NC(=O)[C@@H](N)CO)[C@@H](C)CC)[C@@H](C)O)C(C)C)[C@@H](C)CC)C(N)=O [hCRF]
time for which plasma levels of ACTH are elevated (ACTH secretion; [7]): 5 to 20 min | stimulation of ACTH secretion in vivo (ACTH secretion; several rat preparations): powerful stimulator | time for which plasma levels of β-END-LI are elevated (β-END-LI secretion; [7]): 5 to 20 min | stimulation of β-END-LI secretion in vivo (β-END-LI secretion; several rat preparations): powerful stimulator

Compound: H-Asp-CML-Thr-Leu-Glu-CML-Leu-Arg-Glu-Met-CML-Glu-Met-Ala-Lys-Ala-Glu-Gln- CML-Ala-Glu-Gln-Ala-Ala-CML-Asn-Arg-Leu-CML-Leu-Glu-Glu-Ala-NH2 [[CML^10,14,19,27,33,38]-AHC(9-41)]
inhibition of the secretion of ACTH (in words) [1]: inhibits the secretion | inhibition of the secretion of β-END-LI (in words) [5]: inhibits the secretion | lowering of blood pressure [6]: very significant lowering of blood pressure

Compound: CCCC[C@H](NC(=O)[C@H](CCC(=O)O)NC(=O)[C@H](CC(C)C)NC(=O)[C@H](CCCC)NC(=O)[C@H](CCC(=O)O)NC(=O)[C@H](CCCNC(=N)N)NC(=O)[C@H](CC(C)C)NC(=O)[C@H](CC(C)C)NC(=O)[C@H](Cc1c[nH]cn1)NC(=O)[C@H](Cc1ccccc1)NC(=O)[C@@H](NC(=O)[C@@H](N)CC(C)C)[C@@H](C)O)C(=O)N[C@@H](C)C(=O)N[C@@H](CCCCN)C(=O)N[C@@H](C)C(=O)N[C@@H](CCC(=O)O)C(=O)N[C@@H](CCC(N)=O)C(=O)N[C@@H](CCC(=O)O)C(=O)N[C@@H](C)C(=O)N[C@@H](CCC(=O)O)C(=O)N[C@@H](CCC(N)=O)C(=O)N[C@@H](C)C(=O)N[C@@H](C)C(=O)N[C@@H](CC(C)C)C(=O)N[C@@H](CC(N)=O)C(=O)N[C@@H](CCCNC(=N)N)C(=O)N[C@@H](CC(C)C)C(=O)N[C@@H](CC(C)C)C(=O)N[C@@H](CC(C)C)C(=O)N[C@@H](CCC(=O)O)C(=O)N[C@@H](CCC(=O)O)C(=O)N[C@@H](C)C(N)=O [[Nle^18,21]-AHC(10-41)] (H-LTFHLLRE[Nle]LE[Nle]AKAEQEAEQAALNRLLLEEA-NH2)
inhibition of the secretion of ACTH (in words) [1]: inhibits the secretion | inhibition of the secretion of β-END-LI (in words) [5]: inhibits the secretion

Compound: H-DLSLELLRKMIEIEKQEKLKQQAANNRLLMDTI-NH2 [[Leu^26, Met^37]-sauvagine(8-40)]
inhibition of the secretion of ACTH (in words) [1]: inhibits the secretion | inhibition of the secretion of β-END-LI (in words) [5]: inhibits the secretion

Compound: H-DLTFHLLREVAEMTRAEQLAQQAHSNRKLMEII-NH2 [[Ala^19, Thr^22]-hCRF(9-41)]
inhibition of the secretion of ACTH (in words) [1]: inhibits the secretion | inhibition of the secretion of β-END-LI (in words) [5]: inhibits the secretion

Compound: H-Asp-CML-Thr-Leu-Glu-CML-CML-Arg-Glu-Met-CML-Glu-Met-CMA-Lys-Ala-Glu-Gln- CML-Ala-Glu-Gln-Ala-CMA-CML-Asn-Arg-Leu-CML-Leu-Glu-Glu-CMA-NH2
inhibition of the secretion of ACTH (in words) [1]: inhibits the secretion | inhibition of the secretion of β-END-LI (in words) [5]: inhibits the secretion
